Data from ChEMBL document CHEMBL1201862, “PubChem BioAssay data set” (2004).
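Method: 48-hour compound exposure of cells in 96-well plates, five concentrations, linear interpolation of endpoints. GI50 is the concentration that inhibits growth by half.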 Active and inactive are the calls of the source. No stated cut-off is given here; in the data, active = GI50 up to about 1.1 µM and inactive = higher.

Tests used:
Experiment in all cases: NCI-60 cell line screen, 48 h
SF-295 = system: SF-295
SK-MEL-2 = system: SK-MEL-2
NCI-H226 = system: NCI-H226
MDA-N = system: MDA-N
HCT-15 = system: HCT-15
LOX IMVI = system: LOX IMVI
RPMI-8226 = system: RPMI-8226
SNB-19 = system: SNB-19
NCI-H522 = system: NCI-H522
NCI/ADR-RES = system: NCI/ADR-RES
SNB-75 = system: SNB-75
MDA-MB-231 = system: MDA-MB-231
OVCAR-8 = system: OVCAR-8
UO-31 = system: UO-31
BT-549 = system: BT-549
HOP-62 = system: HOP-62
A549 = system: A549
CCRF-CEM = system: CCRF-CEM
A498 = system: A498
SK-OV-3 = system: SK-OV-3

Compound	GI50 (SF-295)	GI50 (SK-MEL-2)	GI50 (NCI-H226)	GI50 (MDA-N)	GI50 (HCT-15) [µM]	GI50 (LOX IMVI)	GI50 (RPMI-8226)	GI50 (SNB-19)	GI50 (NCI-H522)	GI50 (NCI/ADR-RES)	GI50 (SNB-75)	GI50 (MDA-MB-231)	GI50 (OVCAR-8)	GI50 (UO-31)	GI50 (BT-549)	GI50 (HOP-62)	GI50 (A549)	GI50 (CCRF-CEM)	GI50 (A498)	GI50 (SK-OV-3)
O=C1c2cc(-c3ccccc3)cnc2S(=O)(=O)N1c1ccc(Br)cc1	20 µM (inactive)	96.2 µM (inactive)	> 100 µM (inactive)	> 100 µM (inactive)	34.7	41.1 µM (inactive)	21.1 µM (inactive)	15.8 µM (inactive)	14.8 µM (inactive)	83.6 µM (inactive)	25.1 µM (inactive)	52.2 µM (inactive)	44 µM (inactive)	> 100 µM (inactive)	> 100 µM (inactive)	16.8 µM (inactive)	18.7 µM (inactive)	24.9 µM (inactive)	> 100 µM (inactive)	26.2 µM (inactive)
CC(=O)NC1=C(Sc2ccc(Cl)cc2)C(=O)c2ccccc2C1=O	8.81 µM (inactive)	3.88 µM (inactive)	10.6 µM (inactive)	1.76 µM (inactive)	4.15	3.55 µM (inactive)	1.31 µM (inactive)	13.2 µM (inactive)	0.272 µM (active)	2.37 µM (inactive)		3.04 µM (inactive)	2.04 µM (inactive)	1.95 µM (inactive)	4.81 µM (inactive)		11.5 µM (inactive)	1.06 µM (active)	3.5 µM (inactive)	15.7 µM (inactive)
O=C(O)c1c(-c2c3ccc(=O)cc-3oc3cc(O)ccc23)cc2ccccc2c1-c1ccccc1	> 100 µM (inactive)	> 100 µM (inactive)	> 100 µM (inactive)	> 100 µM (inactive)	> 100	> 100 µM (inactive)	> 100 µM (inactive)	> 100 µM (inactive)	> 100 µM (inactive)	> 100 µM (inactive)	41.5 µM (inactive)	> 100 µM (inactive)	> 100 µM (inactive)	> 100 µM (inactive)	> 100 µM (inactive)	> 100 µM (inactive)	> 100 µM (inactive)	> 20.6 µM (inactive)	> 100 µM (inactive)	> 100 µM (inactive)
O=S(=O)(CC(Cl)c1ccccc1)c1nc2ccccc2s1 (stereo unspecified)	17.9 µM (inactive)	17.8 µM (inactive)	8.11 µM (inactive)	6.22 µM (inactive)	8.02	1.5 µM (inactive)	3.35 µM (inactive)	17.8 µM (inactive)	1.85 µM (inactive)	10.7 µM (inactive)	14.5 µM (inactive)	14.1 µM (inactive)	7.96 µM (inactive)	15.4 µM (inactive)	2.98 µM (inactive)	23.1 µM (inactive)	19.5 µM (inactive)	1.7 µM (inactive)	20 µM (inactive)	18.7 µM (inactive)
O=C(c1ccccc1)N(CCCCNC(=O)C(F)(F)F)CCCNC(=O)C(F)(F)F	> 100 µM (inactive)		> 100 µM (inactive)	> 100 µM (inactive)	> 100	> 100 µM (inactive)	> 100 µM (inactive)	> 100 µM (inactive)	> 100 µM (inactive)	> 100 µM (inactive)	32.6 µM (inactive)	> 100 µM (inactive)	> 100 µM (inactive)	> 100 µM (inactive)	> 100 µM (inactive)		> 100 µM (inactive)	> 100 µM (inactive)	> 100 µM (inactive)	> 100 µM (inactive)
CN(CCc1ccc(Br)cc1)CCN1CCCCC1	25.1 µM (inactive)	24.4 µM (inactive)	33.4 µM (inactive)	22.6 µM (inactive)	60.5	28.6 µM (inactive)	62.5 µM (inactive)	> 100 µM (inactive)	21.6 µM (inactive)	46.5 µM (inactive)	22.3 µM (inactive)	17.3 µM (inactive)	31.4 µM (inactive)	36.1 µM (inactive)	24.8 µM (inactive)	31.8 µM (inactive)	43.4 µM (inactive)	16.4 µM (inactive)	21 µM (inactive)	55.8 µM (inactive)
O=C1C=CC(=O)c2c(O)c(N3CCN(c4ccccn4)CC3)cc(O)c21	17.5 µM (inactive)	5.92 µM (inactive)	45.7 µM (inactive)	2.41 µM (inactive)	3.28	3.95 µM (inactive)	4.68 µM (inactive)	19.2 µM (inactive)	5.06 µM (inactive)	2.33 µM (inactive)	7.41 µM (inactive)	13 µM (inactive)	5.69 µM (inactive)	8.28 µM (inactive)	10.7 µM (inactive)	21 µM (inactive)	5.85 µM (inactive)	3.07 µM (inactive)	34.4 µM (inactive)	28.1 µM (inactive)
Oc1cccc(-c2cn3cc(Cl)ccc3n2)c1	39.4 µM (inactive)	38.8 µM (inactive)	91.4 µM (inactive)	39.8 µM (inactive)	30.7	45.7 µM (inactive)		> 100 µM (inactive)	15.9 µM (inactive)	34.5 µM (inactive)		> 100 µM (inactive)	31.4 µM (inactive)	36.7 µM (inactive)	51.1 µM (inactive)	> 100 µM (inactive)	51.5 µM (inactive)	7.03 µM (inactive)	45.3 µM (inactive)	96.6 µM (inactive)
CCOC(=O)CNC(=O)CNC(=O)CNC(=O)CNNc1c(OCc2ccccc2)c(=O)c1=O		> 100 µM (inactive)	> 100 µM (inactive)	> 100 µM (inactive)	> 100		> 100 µM (inactive)	> 100 µM (inactive)	> 100 µM (inactive)	> 100 µM (inactive)	> 100 µM (inactive)	> 100 µM (inactive)	> 100 µM (inactive)	> 100 µM (inactive)	> 100 µM (inactive)	> 100 µM (inactive)	> 100 µM (inactive)	> 100 µM (inactive)	> 100 µM (inactive)	> 100 µM (inactive)
Oc1ccc(O)c(Sc2nnc(CCCCCCCCc3nnc(Sc4cc(O)ccc4O)o3)o2)c1	> 100 µM (inactive)	> 100 µM (inactive)	> 100 µM (inactive)	17.3 µM (inactive)	88.7		23.1 µM (inactive)	> 100 µM (inactive)	23.8 µM (inactive)	> 100 µM (inactive)	> 100 µM (inactive)	> 100 µM (inactive)		16.6 µM (inactive)	74.8 µM (inactive)	> 100 µM (inactive)	> 100 µM (inactive)		> 100 µM (inactive)	> 100 µM (inactive)
N#Cc1c(-c2ccccc2)cc(-c2ccc(Cl)cc2)[nH]c1=S	27.1 µM (inactive)		25.6 µM (inactive)	34.5 µM (inactive)	25.8	25.5 µM (inactive)	29.2 µM (inactive)	32.8 µM (inactive)	27.4 µM (inactive)	39.4 µM (inactive)	37.1 µM (inactive)	23.4 µM (inactive)	43.6 µM (inactive)	24.8 µM (inactive)	41.5 µM (inactive)	50.1 µM (inactive)	38.4 µM (inactive)	26.4 µM (inactive)	22.6 µM (inactive)	27.4 µM (inactive)
N#CSCc1cccc(Nc2cc(=O)[nH]c(=O)[nH]2)c1	> 100 µM (inactive)	> 100 µM (inactive)	48.3 µM (inactive)	52.4 µM (inactive)	56.6	92.3 µM (inactive)	47.9 µM (inactive)	> 100 µM (inactive)	39.7 µM (inactive)	> 100 µM (inactive)	> 100 µM (inactive)	> 100 µM (inactive)	72.1 µM (inactive)	> 100 µM (inactive)	38 µM (inactive)	> 100 µM (inactive)	> 100 µM (inactive)		> 100 µM (inactive)	> 100 µM (inactive)
CCOC(=O)/C(C(=O)Nc1cccc(C(F)(F)F)c1)=C(/N)N1CCOCC1	> 100 µM (inactive)	> 100 µM (inactive)	86.9 µM (inactive)	> 100 µM (inactive)	> 100	> 100 µM (inactive)	> 100 µM (inactive)	> 100 µM (inactive)	> 100 µM (inactive)	> 100 µM (inactive)	> 100 µM (inactive)	> 100 µM (inactive)	> 100 µM (inactive)		> 100 µM (inactive)	> 100 µM (inactive)	> 100 µM (inactive)	> 100 µM (inactive)	> 100 µM (inactive)	> 100 µM (inactive)
NC(=O)NC(=O)c1cccc(NC(=O)CCl)c1	2.79 µM (inactive)	2.38 µM (inactive)	2.19 µM (inactive)	0.385 µM (active)	0.948	0.465 µM (active)	1.18 µM (inactive)		1.55 µM (inactive)	1.65 µM (inactive)	1.98 µM (inactive)	2.79 µM (inactive)	2.22 µM (inactive)	0.168 µM (active)	1.41 µM (inactive)	1.61 µM (inactive)		0.855 µM (active)	2.55 µM (inactive)	1.45 µM (inactive)
CC(C)C(Br)CCC1=CCC(Br)(Br)C1 (stereo unspecified)	17 µM (inactive)	5.77 µM (inactive)	11.9 µM (inactive)	2.94 µM (inactive)		1.41 µM (inactive)		18 µM (inactive)	2.35 µM (inactive)	22.6 µM (inactive)	10.9 µM (inactive)	5.27 µM (inactive)		10.2 µM (inactive)	20.2 µM (inactive)	17 µM (inactive)	17.9 µM (inactive)	2.79 µM (inactive)	18.8 µM (inactive)	13.1 µM (inactive)
